The subject of this assay is collagen Iα1 expression in proximal tubular cells (mProx24). The assay is described as follows: Inhibitory effect on collagen Iα1 expression in proximal tubular cells (hTGF-β1 stimulated, real-time PCR). It counts as cell-based. Conditions: for mrna remaining at 0.01 µM / mrna remaining at 0.1 µM / mrna remaining at 1 µM / mrna remaining at 10 µM / inhibition at 0.01 µM / inhibition at 0.1 µM / inhibition at 1 µM / inhibition at 10 µM / IC50: Mus musculus; for mrna remaining at 0.01 µM / mrna remaining at 0.1 µM / mrna remaining at 1 µM / mrna remaining at 10 µM: Col1, mProx24, 5 ng/ml hTGF-β1 6 hrs, relative to hTGF-β1 alone = 1, read-out: Mean expression level ratio of collagen Iα1 (Col1α) to 18S rRNA; for mrna remaining at 0.01 µM / inhibition at 0.01 µM: 0.01 μM compound; for mrna remaining at 0.1 µM / inhibition at 0.1 µM: 0.1 μM compound; for mrna remaining at 1 µM / inhibition at 1 µM: 1 μM compound; for mrna remaining at 10 µM / inhibition at 10 µM: 10 μM compound; for inhibition at 0.01 µM / inhibition at 0.1 µM / inhibition at 1 µM / inhibition at 10 µM: mProx24, 100% = control without hTGF-β1, 0% = hTGF-β1 alone, read-out: expression inhibition rate (collagen Iα1); for IC50: mProx24, hTGF-β1 stimulated, read-out: IC50 (inhibition of collagen Iα1 expression). The protocol: mProx24, which is a name of the proximal tubular cells derived from proximal tubule segments obtained by finely sectioning the kidney of adult C57BL6/J mice, was granted from Professor Sugaya, St. Marianna University School of Medicine, Kanagawa, Japan. mProx24 was cultured in DMEM (Dulbecco's modified Eagle's medium) supplemented with 10% fetal calf serum (FCS, Gibco), 100 U/ml penicillin, 100 μg/ml streptomycin, and 44 mM NaHCO3 at 37° C. in a 5% CO2 atmosphere. For quantitation of RNA expression, the cells were cultured in 6-well plates. When the cells grew 90% confluent, the medium was changed with a fresh 0.15% FCS (Gibco)-supplemented DMEM. Incubation in this medium for 24 hrs halted the cell growth to synchronize the growth cycle in the cells. Compounds of Examples 1 to 9 and Comparative Example were respectively dissolved in DMSO (dimethylsulfoxide) to form a concentration of 50 mM, and subjected to serial dilution to 10 mM, 1 mM, 0.1 mM, and 0.01 mM. 10 mM, 1 mM, 0.1 mM, and 0.01 mM solutions of each of the compounds of Examples 1 to 9 and Comparative Example were 1,000-fold diluted in 0.15% FCS (Gibco)-supplemented DMEM to form final concentrations of 10 μM, 1 μM, 0.1 μM, and 0.01 μM, respectively. In addition, 0 μM (DMSO 1 μL) was used. The cells were incubated for 1 hr in the dilutions and then for 6 hrs in the presence of 5 ng/ml recombinant human transforming growth factor-β1 (hTGF-β1, R&D Systems). For the control, hTGF-β1 was not used. Total RNA was extracted from mProx24 using Trizol (Invitrogen). For quantitation of mRNA expression, a reaction volume of 20 μL including cDNA transcripts, primer pairs, and SYBR Green PCR Master Mix (Applied Biosystems) was subjected to real-time PCR with the aid of StepOnePlus (Applied Biosystems) (real-time PCR condition: 95° C., 10 min→40 thermal cycles of denaturation at 95° C. for 15 sec and primer annealing at 60° C. for 1 min→95° C. for 15 sec, 60° C. for 1 min, and 95° C. for 15 sec to measure a melting curve). Quantitation was normalized to 18S rRNA expression level. A pair of primers for mouse collagen Iα1 were 5′-[…]-3′(SEQ ID NO: 13) and 5′-[…]-3′ (SEQ ID NO: 14). Forward and reverse primers for mouse r18S rRNA were 5′-CGAAAGCATTTGCCAAGAAT-3′ (SEQ ID NO: 11) and 5′-AGTCGGCATCGTTTATGGTC-3′ (SEQ ID NO: 12), respectively.
Experiment results are given in Tables 3 to 12 and FIGS. 4 to 13. Tables 3 to 12 and FIGS. 4 to 13 show inhibitory effects of the compounds of Examples 1 to 9 and Comparative Example 1 on collagen Iα1 expression in proximal tubular cells.
Data of Tables 3 to 12 and FIGS. 4 to 13 are measurements of experiments repeated three to five times for each concentration, and are expressed as mean±standard error (SE). Statistic comparison among the groups was analyzed by ANOVA and Fisher's least significant difference test, with significance at p<0.05. *P<0.05 vs. WT, †P<0.05 vs. DM.
In Tables 3 to 12, mean values of expression level ratios of collagen Iα1 (Col1α) to 18S rRNA (18S), and % inhibition against collagen Iα1 expression for each group are shown, together with IC50 value (μM). In this regard, % inhibition means relative inhibition to 100% for the control and 0% for the group that was treated with hTGF-β1 but not with any of the compounds of Examples or Comparative Example.
For orientation: Quantitative PCR measures a nucleic acid by following its amplification.

In general, inhibition refers to the share of the control response that was lost under treatment. Usually IC50 stands for the concentration needed to halve the response being measured. `Oc1cc(-c2ccc(Br)cc2)nn1-c1ccccn1` [Compound 18-066, 3-(4-bromophenyl)-1-(pyridin-2-yl)-1H-pyrazol-5-ol]: the mrna remaining at 0.01 µM is 78.5%, the mrna remaining at 0.1 µM was determined as 71.7%, the mrna remaining at 1 µM turned out to be 72.6% and the mrna remaining at 10 µM turned out to be 58.3%. For the same molecule, the inhibition at 0.01 µM was found to be 30.2%, the inhibition at 0.1 µM is 39.8%, the inhibition at 1 µM worked out at 38.5% and the inhibition at 10 µM was determined as 58.6%. The IC50 was found to be 2.14 µM.
As to `Oc1cc(-c2ccc(-c3ccccc3)cc2)nn1-c1ncccn1` [Compound 18-186, 3-(biphenyl-4-yl)-1-(pyrimidin-2-yl)-1H-pyrazol-5-ol], the mrna remaining at 0.01 µM amounted to 82.5%, the mrna remaining at 0.1 µM came out at 56.9%, the mrna remaining at 1 µM came out at 58.6% and the mrna remaining at 10 µM turned out to be 58.3%. Besides, the inhibition at 0.01 µM turned out to be 22.5%, the inhibition at 0.1 µM was 55.4%, the inhibition at 1 µM worked out at 53.2% and the inhibition at 10 µM came to 53.6%. For the same molecule, the IC50 was found to be 0.078 µM.
In the case of `CC(=O)Oc1cc(-c2ccc(Br)cc2)nn1-c1ccccn1` [Compound 18-067, 3-(4-bromophenyl)-1-(pyridin-2-yl)-1H-pyrazol-5-yl acetate], the mrna remaining at 0.01 µM came to 70%, the mrna remaining at 0.1 µM was 60.7%, the mrna remaining at 1 µM stood at 56.2% and the mrna remaining at 10 µM was 32.5%. Further, the inhibition at 0.01 µM stood at 35.6%, the inhibition at 0.1 µM was found to be 46.6%, the inhibition at 1 µM was 52% and the inhibition at 10 µM stood at 80.1%. For the same molecule, the IC50 came to 0.299 µM.
Turning to `Oc1cc(COc2ccc3ccccc3c2)nn1-c1ccccn1` [Compound 18-095, 3-((naphthalen-3-yloxy)methyl)-1-(pyridin-2-yl)-1H-pyrazol-5-ol], the mrna remaining at 0.01 µM stood at 69.9%, the mrna remaining at 0.1 µM was determined as 66.3%, the mrna remaining at 1 µM was determined as 50.4% and the mrna remaining at 10 µM is 26.8%. Besides, the inhibition at 0.01 µM came out at 37.2%, the inhibition at 0.1 µM amounted to 41.7%, the inhibition at 1 µM turned out to be 61.4% and the inhibition at 10 µM amounted to 90.6%. Also, the IC50 was 0.227 µM.
Take `CCCc1c(/C=C/c2ccc(O)c(OC)c2)nn(-c2ccccn2)c1O` [Compound 18-273, 3-{2-(4-hydroxy-3-methoxyphenyl)vinyl}-4-propyl-1-(2-pyridinyl)pyrazol-5-ol]: the mrna remaining at 0.01 µM stood at 40.8%, the mrna remaining at 0.1 µM is 83.5%, the mrna remaining at 1 µM turned out to be 83.2% and the mrna remaining at 10 µM was found to be 46%. The inhibition at 0.01 µM turned out to be 82.6%, the inhibition at 0.1 µM turned out to be 23%, the inhibition at 1 µM was 23.4% and the inhibition at 10 µM was found to be 75.3%. The IC50 is 1.78 µM.
Turning to `COc1cccc(-c2cc(O)n(-c3ccccn3)n2)c1` [Compound 18-001, 3-(3-Methoxyphenyl)-1-(Pyridin-2-yl)-1H-Pyrazol-5-ol], the mrna remaining at 0.01 µM came out at 74.8%, the mrna remaining at 0.1 µM turned out to be 69.8%, the mrna remaining at 1 µM stood at 64.2% and the mrna remaining at 10 µM was found to be 34.5%. Moreover, the inhibition at 0.01 µM worked out at 31%, the inhibition at 0.1 µM worked out at 37.1%, the inhibition at 1 µM was found to be 44% and the inhibition at 10 µM was 80.5%. In addition, the IC50 came to 3.19 µM.
For the molecule `Oc1cc(-c2cccc(I)c2)nn1-c1ccccn1` [Compound 18-082, 3-(3-iodophenyl)-1-(pyridin-2-yl)-1H-pyrazol-5-ol], the mrna remaining at 0.01 µM was determined as 71%, the mrna remaining at 0.1 µM amounted to 60.5%, the mrna remaining at 1 µM amounted to 39.1% and the mrna remaining at 10 µM was 31.2%. Further, the inhibition at 0.01 µM turned out to be 39.5%, the inhibition at 0.1 µM came to 53.8%, the inhibition at 1 µM came out at 83% and the inhibition at 10 µM turned out to be 93.7%. The IC50 worked out at 0.105 µM.
On to `c1ccc(COc2c(Cc3ccccc3)c(-c3ccccc3)nn2-c2ccccn2)cc1` [Compound 18-233, 3-Phenyl-4-Benzyl-5-Benzyloxy-1-(2-Pyridinyl)Pyrazole, reference compound], for which the mrna remaining at 0.01 µM worked out at 93.3%, the mrna remaining at 0.1 µM was determined as 75.7%, the mrna remaining at 1 µM turned out to be 71.2% and the mrna remaining at 10 µM was 65.6%. In addition, the inhibition at 0.01 µM is 8.23%, the inhibition at 0.1 µM worked out at 29.9%, the inhibition at 1 µM was 35.4% and the inhibition at 10 µM was 42.3%. Also, the IC50 came out at 10.2 µM. Moreover, the “expression of the extracellular matrix, collagen Iα1 (Col1α), in proximal tubular cells” value (result in words) was “decreased the expression level”.
For `Oc1cc(-c2ccccc2-c2ccc3c(c2)OCO3)nn1-c1ccccn1` [Compound 18-177, 3-(2-(benzo[d][1,3]dioxol-5-yl)phenyl)-1-(pyridin-2-yl)-1H-pyrazol-5-ol], the mrna remaining at 0.01 µM turned out to be 96%, the mrna remaining at 0.1 µM was found to be 83.9%, the mrna remaining at 1 µM was 74.2% and the mrna remaining at 10 µM is 43.8%. The inhibition at 0.01 µM turned out to be 5.46%, the inhibition at 0.1 µM was found to be 22%, the inhibition at 1 µM was found to be 35.2% and the inhibition at 10 µM amounted to 76.7%. For the same molecule, the IC50 was 1.31 µM.

The record behind these values is US10047067B2, “Composition for treating kidney disease comprising pyrazole derivative” (Ewha University-Industry Collaboration Foundation, priority 2012, dated 2018).
